Paper PMC9458935, “Modulation of type 1 cannabinoid receptor activity by cannabinoid by-products from Cannabis sativa and non-cannabis phytomolecules” (Frontiers in Pharmacology, 2022)
Read-outs that look alike come from different tables or passages of the source.

Tests used:
[1] = biological target: T1, hCB1R (Homo sapiens, UniProt P21554); assay: cell-based; type: cell-based
[2] = test system: male C57BL/6 mice; assay: Anti-nociception, warm water tail-flick test; type: in vivo, mouse; conditions: 20 min post-injection; for anti-nociceptive effect, tail-flick: 10 mg/kg i.p., male mice; for effect on ∆9-THC-dependent anti-nociception, tail-flick: 10 mg/kg phytomolecule + 10 mg/kg ∆9-THC i.p.
Experimental: (§1) Male C57BL/6 mice between 8 and 12 weeks of age were used for these studies. Animals were group housed at the Laboratory Animal Services Unit (LASU) at the University of Saskatchewan (3 animals/cage) with a standard 12:12 light-dark cycle, ad libitum access to food and water, and environmental enrichment. Compounds were prepared in the vehicle [ethanol and cremophor in saline (1:1:8)] and administered intraperitoneally (i.p.). Catalepsy was assessed in the bar holding assay 5 min after compound administration with animals placed so that their forepaws clasped a 0.7-cm ring clamp 4.5 cm above the surface of the testing space ([Garai et al., 2020]). The length of time the ring was held was recorded up to 60 s (i.e., percent maximum possible effect [MPE] 60 s) with the trial ending if the mouse turned its head or body or made three consecutive escape attempts. Body temperature was measured 15 min after compound administration by using a rectal thermometer. Anti-nociceptive effects were measured in warm water (52 ± 2°C) using the tail-flick test 20 min after compound administration to a maximum of 20 s (i.e., percent maximum possible effect [MPE] 20 s). Compounds were administered at the doses indicated. Experimenters were blinded to treatment for all behavioral assessments and analyses. Animals were purchased, rather than bred, to reduce animal numbers. In all cases, experiments were performed with the approval of the University Animal Care Committee (UACC) at the University of Saskatchewan and in keeping with the guidelines of the Canadian Council on Animal Care (CCAC).

[3] = test system: male C57BL/6 mice; assay: Body temperature, rectal thermometer; type: in vivo, mouse; conditions: 15 min post-injection; for body temperature: 10 mg/kg i.p., male mice; for effect on ∆9-THC-dependent change of body temperature: 10 mg/kg phytomolecule + 10 mg/kg ∆9-THC i.p.
Experimental: as §1

[4] = biological target: T1, hCB1R; assay: cell-based; type: cell-based; remark: listed apart in the source
[5] = test system: male C57BL/6 mice; assay: Catalepsy, bar holding assay; type: in vivo, mouse; conditions: 5 min post-injection; for catalepsy: 10 mg/kg i.p., male mice; for effect on ∆9-THC-dependent catalepsy: 10 mg/kg phytomolecule + 10 mg/kg ∆9-THC i.p.
Experimental: as §1

[6] = biological target: T1, hCB1R; assay: biochemical; type: binding
[7] = CHO-K1, read-out: βarrestin2 recruitment Emax
[8] = CHO-K1, read-out: cAMP inhibition Emax
[9] = CHO-K1; read-out: βarrestin2 recruitment Emax
[10] = compound alone; 90 min; value with 95% CI; read-out: βarrestin2 recruitment EC50
[11] = CHO-K1; read-out: cAMP inhibition Emax
[12] = co-treatment with 100 nM ∆9-THC
[13] = compound alone; 10 µM forskolin, 90 min; value with 95% CI; read-out: cAMP inhibition EC50

T1 sequence (P21554 whole entry): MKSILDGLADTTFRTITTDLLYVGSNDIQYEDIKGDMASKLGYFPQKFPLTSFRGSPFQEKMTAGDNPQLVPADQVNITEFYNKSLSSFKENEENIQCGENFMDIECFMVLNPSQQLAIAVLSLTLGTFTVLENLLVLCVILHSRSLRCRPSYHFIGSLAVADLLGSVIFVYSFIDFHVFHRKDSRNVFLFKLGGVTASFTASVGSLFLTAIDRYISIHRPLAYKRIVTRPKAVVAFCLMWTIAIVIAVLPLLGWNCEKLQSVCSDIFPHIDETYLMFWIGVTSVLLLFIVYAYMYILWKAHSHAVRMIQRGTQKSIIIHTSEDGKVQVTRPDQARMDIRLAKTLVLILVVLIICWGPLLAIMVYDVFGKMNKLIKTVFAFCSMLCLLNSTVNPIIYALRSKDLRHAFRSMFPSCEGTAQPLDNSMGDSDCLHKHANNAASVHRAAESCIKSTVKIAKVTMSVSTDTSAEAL

With `CCCCCc1cc(O)c2c(c1)OC(C)(C)[C@@H]1CCC(CO)=C[C@@H]21` [11-OH-∆^9-THC] the EC50 [1] was > 10 µM, the “effect on βarrestin2 recruitment by 100 nM ∆9-THC” value [1] was “elevated βarrestin2 recruitment above the activity of 100 nM ∆^9-THC” and the Emax [1, 7] was 47 ± 9.4%. The “anti-nociceptive effect, tail-flick” value [2] was “greater hypothermia and anti-nociceptive responses relative to ∆^9-THC”, the body temperature [3] was “greater hypothermia” and the EC50 [4] was 0.011 µM. For the same molecule, the “effect on cAMP inhibition by 100 nM ∆9-THC” value (shortened to “effect on cAMP inhibition”) [4] was “inhibited the activity of 100 nM ∆^9-THC in a concentration-dependent manner”, the Emax [4, 8] was 28 ± 3.9% and the catalepsy [5] was “equal catalepsy”. The “[3H]CP55,940 Emin” value [6] was 70 ± 1.7 %.
In the case of `CCCCCc1cc(O)c2c(c1)OC(C)(C)c1ccc(C)cc1-2` [CBN, cannabinol], the EC50 [1] is reported as > 10 µM, the Emax [1, 7] is reported as 6.9 ± 0.96% and the “anti-nociceptive effect, tail-flick” value [2] is reported as “did not produce such effect”. For the same molecule, the body temperature [3] was “did not produce catalepsy or reduce body temperature”, the EC50 [4] was 0.049 µM and the “effect on cAMP inhibition” value [4] was “neither ∆^8-THC nor CBN produced a significant change in cAMP inhibition”. For the same molecule, the “fold less potent than CP55,940 in cAMP inhibition” value [4] was ~49 x, the Emax [4, 8] was 64 ± 4.6% and the catalepsy [5] was “did not produce catalepsy”. The Ki [6] was 0.14 µM and the “[3H]CP55,940 Emin” value [6] was 71 ± 3.1 %.
With `CCCCCCC(C)(C)c1ccc(C2CC(O)CCC2CCCO)c(O)c1` (centres unmarked) [CP55,940, reference compound] the Emax [1, 7] was 100 ± 3.3%, the Emax [4, 8] was 100 ± 6.2% and the “[3H]CP55,940 Emin” value [6] was 1.0 ± 4.7%.
In the case of `COc1cc(/C=C/C(=O)CC(=O)/C=C/c2ccc(O)c(OC)c2)ccc1O` [Curcumin, curcumin], the Emax [1, 9] is reported as 8.9 ± 2.2%, the EC50 [1, 10] is reported as > 10 µM and the “effect on ∆9-THC-dependent anti-nociception, tail-flick” value [2] is reported as “blocked ∆^9-THC’s effect in the nociception test”. The “effect on ∆9-THC-dependent change of body temperature” value (shortened to “effect on ∆9-THC-dependent change”) [3] was “capable of blocking ∆^9-THC’s effects on catalepsy and body temperature”, the Emax [4, 11] was 6.2 ± 0.76% and the “effect on cAMP inhibition” value [4, 12] was “inhibited the activity of 100 nM ∆^9-THC in a concentration-dependent manner”. For the same molecule, the EC50 [4, 13] was > 10 µM, the “effect on ∆9-THC-dependent catalepsy” value [5] was “capable of blocking ∆^9-THC’s effects on catalepsy” and the Ki [6] was > 10 µM. For the same molecule, the “[3H]CP55,940 Emin” value [6] was 100 ± 2.0 % and the “effect on [3H]CP55,940 displacement by 100 nM ∆9-THC” value (shortened to “effect on [3H]CP55,940 displacement”) [6] was “did not significantly alter [^3H]CP55,940 displacement”.
`O=C(O[C@@H]1Cc2c(O)cc(O)cc2O[C@@H]1c1cc(O)c(O)c(O)c1)c1cc(O)c(O)c(O)c1` [Egc G, epigallocatechin gallate] was tested, and the Emax [1, 9] was 7.2 ± 0.85%, the EC50 [1, 10] was > 10 µM and the Emax [4, 11] was 5.6 ± 0.52%. For the same molecule, the “effect on cAMP inhibition” value [4, 12] was “inhibited the activity of 100 nM ∆^9-THC in a concentration-dependent manner”, the EC50 [4, 13] was > 10 µM and the Ki [6] was > 10 µM. The “[3H]CP55,940 Emin” value [6] was 95 ± 3.4 % and the “effect on [3H]CP55,940 displacement” value [6] was “augmented the displacement of [^3H]CP55,940 from hCB1R by ∆^9-THC”.
`CCCCCc1cc(O)cc(O)c1` [Olivetol, olivetol] was tested, and the Emax [1, 9] was 8.3 ± 2.1%, the EC50 [1, 10] was > 10 µM and the Emax [4, 11] was 5.6 ± 1.6%. The “effect on cAMP inhibition” value [4, 12] was “did not change the cAMP inhibitory effects of 100 nM ∆^9-THC”, the EC50 [4, 13] was > 10 µM and the Ki [6] was 0.017 µM. The “[3H]CP55,940 Emin” value [6] was 57 ± 5.5 % and the “effect on [3H]CP55,940 displacement” value [6] was “did not significantly alter [^3H]CP55,940 displacement”.
`CCCCCCCCCCCCCCCC(=O)NCCO` [PEA, palmitoylethanolamide] was tested, and the “concentration at which CB1R- and ∆9-THC-dependent βarrestin2 recruitment was augmented” value [1] was “approximately 1 μM”, the “effect on βarrestin2 recruitment by 100 nM ∆9-THC” value [1] was “slightly increased βarrestin2 recruitment” and the Emax [1, 7] was 5.6 ± 3.3%. The “effect on ∆9-THC-dependent anti-nociception, tail-flick” value [2] was “did not block the effect”, the “effect on ∆9-THC-dependent change” value [3] was “capable of blocking ∆^9-THC’s effects on catalepsy and body temperature” and the “concentration at which CB1R- and ∆9-THC-dependent inhibition of cAMP was augmented” value [4] was “approximately 1 μM”. For the same molecule, the “effect on cAMP inhibition” value [4] was “augmented the activity of 100 nM ∆^9-THC in a concentration-dependent manner”, the “type of agonism in cAMP inhibition” value [4] was “weak partial agonist inhibition of cAMP accumulation” and the Emax [4, 8] was 26 ± 1.8%. The “effect on ∆9-THC-dependent catalepsy” value [5] was “capable of blocking ∆^9-THC’s effects on catalepsy”, the Ki [6] was > 10 µM and the “[3H]CP55,940 Emin” value [6] was 46 ± 5.3 %. The “concentration at which [3H]CP55,940 binding was reduced” value [6] was “exceeding 1 μM” and the “effect on [3H]CP55,940 displacement” value [6] was “did not significantly alter [^3H]CP55,940 displacement”.
In the case of `O=C(/C=C/C=C/c1ccc2c(c1)OCO2)N1CCCCC1` [Piperine, piperine], the EC50 [1] is reported as > 10 µM, the Emax [1, 9] is reported as 7.9 ± 0.97% and the EC50 [4] is reported as > 10 µM. The Emax [4, 11] was 5.5 ± 0.63%, the “effect on cAMP inhibition” value [4, 12] was “did not change the cAMP inhibitory effects of 100 nM ∆^9-THC” and the Ki [6] was > 10 µM. The “[3H]CP55,940 Emin” value [6] was 37 ± 2.8 % and the “effect on [3H]CP55,940 displacement” value [6] was “did not significantly alter [^3H]CP55,940 displacement”.
For `O=c1c(O)c(-c2ccc(O)c(O)c2)oc2cc(O)cc(O)c12` [Quercetin, quercetin], the “effect on ∆9-THC-dependent anti-nociception, tail-flick” value [2] was “blocked ∆^9-THC’s effect in the nociception test”, the “effect on ∆9-THC-dependent change” value [3] was “capable of blocking ∆^9-THC’s effects on catalepsy and body temperature” and the “effect on ∆9-THC-dependent catalepsy” value [5] was “capable of blocking ∆^9-THC’s effects on catalepsy”.
With `CCCCCc1cc(O)c2c(c1)OC(C)(C)C1=C2CC(C)CC1` (centres unmarked) [∆^6a,10a-THC] the “anti-nociceptive effect, tail-flick” value [2] was “did not produce such effect”, the body temperature [3] was “did not produce catalepsy or reduce body temperature” and the catalepsy [5] was “did not produce catalepsy”.
`CCCCCc1cc(O)c2c(c1)OC(C)(C)[C@@H]1CC=C(C)C[C@@H]21` [∆^8-THC] was tested, and the Emax [1, 7] was 21 ± 1.8%, the “anti-nociceptive effect, tail-flick” value [2] was “produced an anti-nociceptive effect that was not different from ∆^9-THC” and the body temperature [3] was “did not produce catalepsy or reduce body temperature”. The “effect on cAMP inhibition” value [4] was “neither ∆^8-THC nor CBN produced a significant change in cAMP inhibition”, the Emax [4, 8] was 56 ± 9.6% and the catalepsy [5] was “did not produce catalepsy”. The “[3H]CP55,940 Emin” value [6] was 30 ± 5.0 %.
